These results are taken from patent US20210284618A1, “FURANOCHALCONES AS INHIBITORS OF CYP1A1, CYP1A2 AND CYP1B1 FOR CANCER CHEMOPREVENTION” (Council of Scientific & Industrial Research, priority 2016, published 2021).

One data set deals with T1, CYP2A6 (Homo sapiens, UniProt P11509).
T1 construct: host or cells: yeast microsomes (Saccharosomes)
T1 sequence (P11509 1-494): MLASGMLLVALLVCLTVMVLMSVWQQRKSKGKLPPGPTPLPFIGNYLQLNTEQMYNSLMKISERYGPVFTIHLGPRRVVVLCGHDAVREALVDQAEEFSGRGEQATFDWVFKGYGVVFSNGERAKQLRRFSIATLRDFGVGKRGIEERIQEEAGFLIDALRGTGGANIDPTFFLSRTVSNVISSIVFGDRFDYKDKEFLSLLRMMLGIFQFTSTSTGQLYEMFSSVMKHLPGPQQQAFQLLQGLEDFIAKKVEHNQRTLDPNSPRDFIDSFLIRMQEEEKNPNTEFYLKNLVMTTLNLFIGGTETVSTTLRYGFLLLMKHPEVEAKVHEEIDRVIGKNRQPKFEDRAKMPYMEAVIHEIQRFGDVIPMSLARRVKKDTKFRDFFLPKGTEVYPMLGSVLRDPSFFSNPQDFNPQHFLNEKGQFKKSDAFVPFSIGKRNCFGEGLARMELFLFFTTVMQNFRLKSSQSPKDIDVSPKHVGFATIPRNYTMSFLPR
The experiment in a line: CYP2A6 inhibition in Saccharosomes. Format: biochemical. How it is done: Example 25. IC50 determination for best compound against CYP1A1, CYP1B1 and other CYPs in Saccharosomes. Compounds were serially diluted to six different concentrations with 10% DMSO in a Sero-Well white microplate. The experiment was performed in a similar way as described above in examples 23 and 24.

For another data set, the target named is T2, CYP2C19 (Homo sapiens, UniProt P33261).
T2 construct: host or cells: yeast microsomes (Saccharosomes)
Put plainly: CYP2C19 inhibition in Saccharosomes. Format: biochemical. The following applies: Saccharosomes containing CYP2C19.

T2 sequence (P33261 whole entry): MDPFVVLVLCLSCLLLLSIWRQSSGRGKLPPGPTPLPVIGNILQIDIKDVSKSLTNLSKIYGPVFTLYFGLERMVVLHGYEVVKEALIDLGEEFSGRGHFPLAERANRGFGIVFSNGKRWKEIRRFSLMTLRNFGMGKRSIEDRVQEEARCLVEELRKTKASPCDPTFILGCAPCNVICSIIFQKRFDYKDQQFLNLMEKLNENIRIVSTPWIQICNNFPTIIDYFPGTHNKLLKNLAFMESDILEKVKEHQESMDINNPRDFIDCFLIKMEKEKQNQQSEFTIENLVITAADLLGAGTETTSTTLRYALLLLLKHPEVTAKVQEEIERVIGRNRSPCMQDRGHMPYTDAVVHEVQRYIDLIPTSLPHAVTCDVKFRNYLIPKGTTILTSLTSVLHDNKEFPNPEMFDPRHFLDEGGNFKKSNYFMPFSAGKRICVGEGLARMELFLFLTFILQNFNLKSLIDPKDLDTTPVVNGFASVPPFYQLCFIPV

A word on the inhibition: it is the relative decrease from the control value, in per cent. `COc1c(C(=O)/C=C/c2cccnc2)c(O)c(OC)c2occc12` [Compound 8, 3-(4,7-dimethoxy-6-hydroxybenzofuran-5-yl)-1-(pyridin-3-yl)-3-oxopropene]: on CYP2A6, the “Inhibition of CYP2A6 at 20 μM” value is recorded as “No Inhibition”. This compound also displayed an inhibition at 20 µM at CYP2C19 of 7%.
